According to US10231972B2, “Combination of a 6-oxo-1,6-dihydro-pyridazine derivative having anti-cancer activity with a quinazoline derivative” (MERCK PATENT GMBH, priority 2014, dated 2019):

How the values were obtained:
Format in all cases: in vivo
human U87-MG tumor cells = assay: Human U87-MG xenograft model; conditions: oral daily; for median tumor volume (TV) change: day 12, female CD-1 nude mice, s.c. U87-MG, 100 mg/kg pyridazinone, 30 mg/kg quinazoline, alone or combined; for median time until tumor progression: progression = TV change >73%, treatment up to 65 days, CD-1 nude mice
Description: Background: The human U87-MG glioblastoma model is an autocrine HGF/c-Met expressing tumor model with an activated c-Met pathway. This model carries a mutation of PTEN, a negative regulator of the PI3K signaling.
(§1) Method: Female CD-1 nude mice (6-8 weeks old) where subcutaneously injected with human U87-MG tumor cells and were divided into treatment groups (8 animals per group) after the tumors were established. Respective groups were administered orally with the 3-(1-{3-[5-(1-Methyl-piperidin-4-ylmethoxy)-pyrimidin-2-yl]-benzyl}-6-oxo-1,6-dihydro-pyridazin-3-yl)-benzonitrile hydrochloride hydrate (100 mg/kg) or 4-[(S)-2-azetidin-1-yl-1-(4-chloro-3-trifluoromethyl-phenyl)-ethylamino]-quinazoline-8-carboxylic acid amide (30 mg/kg) daily in monotherapy or in combination until tumors progressed or until treatment period of 65 days. At day 12, the day of vehicle group termination, median tumor volume (TV) change in % were calculated. Statistical analysis has been done with two way-RM ANOVA. Median time until tumor progression under treatment has been calculated at the end of the study. Tumor progression is defined as tumor volume change >73%.

[1] = system: human NCI-H441 tumor cells; assay: Human NCI-H441 lung xenograft model; conditions: oral daily; for median tumor volume change: day 21, female CD-1 nude mice, s.c. NCI-H441, 100 mg/kg pyridazinone, 30 mg/kg quinazoline, alone or combined; for median time until tumor progression: progression = TV change >73%, treatment up to 78 days, CD-1 nude mice
Description: Background: The human NCI-H441 lung model is an c-Met overexpressing tumor model with an activated c-Met pathway. This model carries a kras mutation. Literature data have shown phosphorylation of S6K is present in this tumor model.
as §1, with “week” for “weeks”, “NCI-H441” for “U87-MG”, “78” for “65”, “21,” for “12,”, “volume” for “volume (TV)”

human H596 tumor cells = assay: Human HGF dependent H596 lung xenograft model; conditions: oral daily; for median tumor volume change: day 14, female humanized HGF SCID mice, s.c. H596, 100 mg/kg pyridazinone, 30 mg/kg (from day 12 20 mg/kg) quinazoline, alone or combined; for median time until tumor progression: progression = TV change >73%, treatment up to 66 days, humanized HGF SCID mice
From the text: Background: The human H596 lung model is c-Met expressing paracrine HGF/c-Met tumor model which a juxta-membran (JM) domain mutation of c-Met which lead to prolonged c-Met activation after HGF ligand binding. The model expresses […] with an activated c-Met pathway. This model carries a PI3KCA mutation (literature data).
Method: Female humanized HGF SCID mice (8-10 weeks old) where subcutaneously injected with human H596 tumor cells and were divided into treatment groups (8 animals per group) after the tumors were established.
Respective groups were administered orally with the 3-(1-{3-[5-(1-Methyl-piperidin-4-ylmethoxy)-pyrimidin-2-yl]-benzyl}-6-oxo-1,6-dihydro-pyridazin-3-yl)-benzonitrile hydrochloride hydrate (100 mg/kg) or 4-[(S)-2-azetidin-1-yl-1-(4-chloro-3-trifluoromethyl-phenyl)-ethylamino]-quinazoline-8-carboxylic acid amide (30 mg/kg, from day 12 20 mg/kg) daily in monotherapy or in combination until tumors progressed or until treatment period of 66 days. At day 14, the day when all animals in the vehicle group were still present, median tumor volume change in % were calculated. Statistical analysis has been done with two way-RM ANOVA. Median time until tumor progression under treatment has been calculated at the end of the study. Tumor progression is defined as tumor volume change >73%.

| Structure (SMILES) | median tumor volume (TV) change (human U87-MG tumor cells) [%] | median time until tumor progression (human U87-MG tumor cells) [days] | median tumor volume change [1] [%] | median time until tumor progression [1] [days] | median tumor volume change (human H596 tumor cells) [%] | median time until tumor progression (human H596 tumor cells) [days] |
| --- | --- | --- | --- | --- | --- | --- |
| CN1CCC(COc2cnc(-c3cccc(Cn4nc(-c5cccc(C#N)c5)ccc4=O)c3)nc2)CC1.Cl.O [3-(1-{3-[5-(1-Methyl-piperidin-4-ylmethoxy)-pyrimidin-2-yl]-benzyl}-6-oxo-1,6-dihydro-pyridazin-3-yl)-benzonitrile hydrochloride hydrate] | −71 | 58 | −1 | 67 | 35 | 24 |
| NC(=O)c1cccc2c(N[C@H](CN3CCC3)c3ccc(Cl)c(C(F)(F)F)c3)ncnc12 [4-[(S)-2-Azetidin-1-yl-1-(4-chloro-3-trifluoromethyl-phenyl)-ethylamino]-quinazoline-8-carboxylic acid amide] | 51 | 14 | 138 | 14 | 36 | 24 |
